Results: patent US11718604B2, “4-amino-6-(1,3-benzodioxole)picolinates and their use as herbicides” (Dow AgroSciences LLC, priority 2018, dated 2023)

Experiments:
Format in all cases: in vivo
[1] = system: ABUTH: velvetleaf (Abutilon theophrasti); assay: Post-emergent herbicidal test, velvetleaf; conditions: post-emergence, 336 h, 14 days after application, read-out: Visual Growth Reduction (%) 14 Days After Application ABUTH
Experimental: (§1) Post-Emergent Test: Seeds or nutlets of the desired test plant species were planted in Sun Gro Metro-Mix® 360 planting mixture, which typically has a pH of 6.0 to 6.8 and an organic matter content of about 30 percent, in plastic pots with a surface area of 64 square centimeters (cm^2). When required to ensure good germination and healthy plants, a fungicide treatment and/or other chemical or physical treatment was applied. The plants were grown for 7-21 d in a greenhouse with an approximate 15 h photoperiod which was maintained at about 23-29° C. during the day and 22-28° C. during the night. Nutrients and water were added on a regular basis and supplemental lighting was provided with overhead metal halide 1000-Watt lamps as necessary. The plants were employed for testing when they reached the first or second true leaf stage.
(§2) A weighed amount, determined by the highest rate to be tested, of each test compound was placed in a 25 mL glass vial and was dissolved in 4 mL of a 97:3 v/v mixture of acetone and DMSO to obtain concentrated stock solutions. […] The concentrated stock solutions obtained were diluted with 20 mL of an aqueous mixture containing acetone, water, isopropyl alcohol, DMSO, Atplus 411F crop oil concentrate, and Triton® X-155 surfactant in a 48.5:39:10:1.5:1.0:0.02 v/v ratio to obtain spray solutions containing the highest application rates. Additional application rates were obtained by serial dilution of 12 mL of the high rate solution into a solution containing 2 mL of a 97:3 v/v mixture of acetone and DMSO and 10 mL of an aqueous mixture containing acetone, water, isopropyl alcohol, DMSO, Atplus 411F crop oil concentrate, and Triton X-155 surfactant in a 48.5:39:10:1.5:1.0:0.02 v/v ratio to obtain ½×, ¼×, ⅛× and 1/16× rates of the high rate. Compound requirements are based upon a 12 mL application volume at a rate of 187 liters per hectare (L/ha). Formulated compounds were applied to the plant material with an overhead Mandel track sprayer equipped with 8002E nozzles calibrated to deliver 187 L/ha over an application area of 0.503 square meters at a spray height of 18 inches (43 cm) above the average plant canopy height. Control plants were sprayed in the same manner with the solvent blank.
(§3) The treated plants and control plants were placed in a greenhouse as described above and watered by subirrigation to prevent wash-off of the test compounds. After 14 d, the condition of the test plants as compared with that of the untreated plants was determined visually and scored on a scale of 0 to 100 percent where 0 corresponds to no injury and 100 corresponds to complete kill.

[2] = system: BRSNN: oilseed rape, canola (Brassica napus); assay: Post-emergent herbicidal test, oilseed rape; conditions: post-emergence, 336 h, 14 days after application, read-out: Visual Growth Reduction (%) 14 Days After Application BRSNN
Experimental: as §1, §2, §3

[3] = system: CIRAR: Canada thistle (Cirsium arvense); assay: Post-emergent herbicidal test, Canada thistle; conditions: post-emergence, 336 h, 14 days after application, read-out: Visual Growth Reduction (%) 14 Days After Application CIRAR
Experimental: as §1, §2, §3

[4] = system: EPHHL: wild poinsettia (Euphorbia heterophylla); assay: Post-emergent herbicidal test, wild poinsettia; conditions: post-emergence, 336 h, 14 days after application, read-out: Visual Growth Reduction (%) 14 Days After Application EPHHL
Experimental: as §1, §2, §3

[5] = system: IPOHE: ivyleaf morningglory (Ipomoea hederacea); assay: Post-emergent herbicidal test, ivyleaf morningglory; conditions: post-emergence, 336 h, 14 days after application, read-out: Visual Growth Reduction (%) 14 Days After Application IPOHE
Experimental: as §1, §2, §3

[6] = system: VIOTR: wild violet (Viola tricolor); assay: Post-emergent herbicidal test, wild violet; conditions: post-emergence, 336 h, 14 days after application, read-out: Visual Growth Reduction (%) 14 Days After Application VIOTR
Experimental: as §1, §2, §3

[7] = system: CYPES: yellow nutsedge (Cyperus esculentus); assay: Post-emergent herbicidal test, yellow nutsedge; conditions: post-emergence, 336 h, 14 days after application, read-out: Visual Growth Reduction (%) 14 Days After Application CYPES
Experimental: as §1, §2, §3

[8] = system: DIGSA: large crabgrass (Digitaria sanguinalis); assay: Post-emergent herbicidal test, large crabgrass; conditions: post-emergence, 336 h, 14 days after application, read-out: Visual Growth Reduction (%) 14 Days After Application DIGSA
Experimental: as §1, §2, §3

[9] = system: ECHCG: barnyardgrass (Echinochloa crus-galli); assay: Post-emergent herbicidal test, barnyardgrass; conditions: post-emergence, 336 h, 14 days after application, read-out: Visual Growth Reduction (%) 14 Days After Application ECHCG
Experimental: as §1, §2, §3

[10] = system: SETFA: giant foxtail (Setaria faberi); assay: Post-emergent herbicidal test, giant foxtail; conditions: post-emergence, 336 h, 14 days after application, read-out: Visual Growth Reduction (%) 14 Days After Application SETFA
Experimental: as §1, §2, §3

[11] = system: SORVU: shattercane (Sorghum bicolor); assay: Post-emergent herbicidal test, shattercane; conditions: post-emergence, 336 h, 14 days after application, read-out: Visual Growth Reduction (%) 14 Days After Application SORVU
Experimental: as §1, §2, §3

C#CCOC(=O)c1nc(-c2ccc(Cl)c3c2OCO3)c(F)c(N)c1Cl [Compound 1C]
0%: pest or weed control at 17.5 g/ha ([5]; 17.5 g ai/ha) | pest or weed control at 35 g/ha ([5]; 35 g ai/ha) | pest or weed control at 70 g/ha ([5]; 70 g ai/ha) | pest or weed control at 17.5 g/ha ([8]; 17.5 g ai/ha) | pest or weed control at 35 g/ha ([8]; 35 g ai/ha) | pest or weed control at 70 g/ha ([8]; 70 g ai/ha) | pest or weed control at 17.5 g/ha ([9]; 17.5 g ai/ha) | pest or weed control at 35 g/ha ([9]; 35 g ai/ha) | pest or weed control at 70 g/ha ([9]; 70 g ai/ha) | pest or weed control at 140 g/ha ([9]; 140 g ai/ha) | pest or weed control at 17.5 g/ha ([10]; 17.5 g ai/ha) | pest or weed control at 35 g/ha ([10]; 35 g ai/ha)
97%: pest or weed control at 35 g/ha ([2]; 35 g ai/ha)
85%: pest or weed control at 35 g/ha ([3]; 35 g ai/ha) | pest or weed control at 70 g/ha ([7]; 70 g ai/ha)
65%: pest or weed control at 17.5 g/ha ([6]; 17.5 g ai/ha) | pest or weed control at 35 g/ha ([6]; 35 g ai/ha) | pest or weed control at 140 g/ha ([6]; 140 g ai/ha)
95%: pest or weed control at 17.5 g/ha ([2]; 17.5 g ai/ha)
30%: pest or weed control at 17.5 g/ha ([7]; 17.5 g ai/ha)
90%: pest or weed control at 70 g/ha ([3]; 70 g ai/ha) | pest or weed control at 140 g/ha ([3]; 140 g ai/ha)
10%: pest or weed control at 17.5 g/ha ([4]; 17.5 g ai/ha) | pest or weed control at 35 g/ha ([4]; 35 g ai/ha) | pest or weed control at 70 g/ha ([4]; 70 g ai/ha) | pest or weed control at 140 g/ha ([5]; 140 g ai/ha) | pest or weed control at 17.5 g/ha ([11]; 17.5 g ai/ha)
50%: pest or weed control at 70 g/ha ([10]; 70 g ai/ha) | pest or weed control at 35 g/ha ([11]; 35 g ai/ha)
25%: pest or weed control at 140 g/ha ([4]; 140 g ai/ha)
100%: pest or weed control at 17.5 g/ha ([1]; 17.5 g ai/ha) | pest or weed control at 35 g/ha ([1]; 35 g ai/ha) | pest or weed control at 70 g/ha ([1]; 70 g ai/ha) | pest or weed control at 140 g/ha ([1]; 140 g ai/ha) | pest or weed control at 70 g/ha ([2]; 70 g ai/ha) | pest or weed control at 140 g/ha ([2]; 140 g ai/ha)
60%: pest or weed control at 70 g/ha ([6]; 70 g ai/ha) | pest or weed control at 140 g/ha ([8]; 140 g ai/ha) | pest or weed control at 140 g/ha ([10]; 140 g ai/ha)
80%: pest or weed control at 35 g/ha ([7]; 35 g ai/ha) | pest or weed control at 140 g/ha ([7]; 140 g ai/ha)
70%: pest or weed control at 17.5 g/ha ([3]; 17.5 g ai/ha) | pest or weed control at 70 g/ha ([11]; 70 g ai/ha) | pest or weed control at 140 g/ha ([11]; 140 g ai/ha)
